One experiment relates to A53T alpha-synuclein. The settings on record: PC-12 cells; independent of rapamycin treatment; cited from earlier work.
A further experiment deals with p21. The experiment in a line: p21 levels in CD34+ cells of DBA patient derived erythroid cell population. The class given is cell-based, human. The settings on record: 1.5 μM; in vitro. The text has this: Accordingly, in another embodiment, an autophagy activator as disclosed herein can be administered to a subject according to the methods as disclosed herein in an effective dose to decrease the levels of p21 expression in CD34+ cells present in an erythroid cell population obtained from the subject by at least about 1%, at least about 2%, at least about 3%, at least about 5%, at least about 10%, at least about 15%, least about 20%, at least about 30%, at least about 40%, at least about 50%, at least about 60%, at least about 70%, at least about 80%, at least about 90%, at least about 95%, at least about 98%, at least about 99%, or more than 99%, as compared to in the absence of an autophagy activator.

Another experiment deals with control iPSCs. The experiment in a line: Erythroid differentiation (CD71+GlyA+) of CD34-5F cells from control iPSCs. The class given is cell-based, human. On the procedure:
(FIG. 8A) The distribution of 1440 compounds by Z-score in a proliferation-based screen of the Sigma LOPAC chemical library. DBA CD34-5F cells were plated in erythroid-promoting conditions in 384-well format. Erythroid proliferation was measured in the presence of 5 μM of each compound, and converted into Z-scores. The screen was carried out with 3 RPS19 DBA and 2 normal iPSC lines. (FIG. 88) Dose-dependent effect of SMER28 (in μM) on erythroid differentiation, shown as the absolute number of erythroid cells in each drug-treated condition normalized to vehicle (DMSO) control. Erythroid cells were analyzed on day 9 of differentiation using markers CD71 and GlyA. […] (FIG. 8C) Absolute number of erythroid cells (analyzed on day 9) in each drug-treated condition normalized to vehicle (DMSO) control (4 independent experiments). […]
(FIG. 12A) Erythroid differentiation of control and DBA CD34-5F cells treated with DMSO vehicle or SMER28 (10 μM) during the initial CD34^+ progenitor phase (day 0-4 of differentiation), or stage I of erythroid culture (day 4-9 of differentiation). Percent of erythroid cells after stage I of differentiation is indicated in top left for each condition, and quantitated in (FIG. 12B). […] GFP^+ RPS19^sh and GFP^− control cells were quantitated separately. […] Arrows indicate enucleated RBCs, which are quantitated by flow cytometry. […]

Experiment [1] concerns erythroid cells from CB CD34+. The experiment in a line: Enucleation efficiency of GLYA+ cells at end of stage III. In kind it is cell-based, human. The settings on record: treatment during stages I-III; vehicle 2.4%±1.2. On the procedure: (FIG. 12A) Erythroid differentiation of control and DBA CD34-5F cells treated with DMSO vehicle or SMER28 (10 μM) during the initial CD34^+ progenitor phase (day 0-4 of differentiation), or stage I of erythroid culture (day 4-9 of differentiation). Percent of erythroid cells after stage I of differentiation is indicated in top left for each condition, and quantitated in (FIG. 12B). Data are shown as mean f s.e.m. of 4 independent experiments, with 2 control and 4 DBA iPSCs. (FIG. 12C) Same as (FIG. 12A) for CB CD34+ cells transduced with shRPS19 hairpins. GFP^+ RPS19^sh and GFP^− control cells were quantitated separately. […] (FIG. 12D) RBC pellets at the end of stage III initiated with equal numbers of CD34-5F or CB progenitors. SMER28 was added at […]. (FIG. 12E) May-Grunwald-Giemsa stain of erythroid cells from CB CD34^+ at end of stage III. Arrows indicate enucleated RBCs, which are quantitated by flow cytometry. (FIG. 12F) Quantitation of the enucleation efficiency (left) of GLYA^+ cells. Data in FIGS. 12E-12F represents 3 independent experiments. For all panels, *p<0.05, **p<0.01.
Erythroblasts proliferate rapidly to give rise to terminally differentiated RBCs. […]

As a reminder, the EC50 is the midpoint of the concentration-response curve.

For the compound `C=CCNc1ncnc2ccc(Br)cc12` [SMER28, 6-Bromo-N-2-propenyl-4-quinazolinam], the A53T alpha-synuclein clearance result with A53T alpha-synuclein is “Enhances”. The “levels of p21 in CD34+ cells” value with p21 is on record as “decreased”. In addition, the “effect on number of erythroid cells normalized to vehicle” value in the experiment on control iPSCs turned out to be 2.5 fold. For the same compound, in the experiment with control iPSCs (Homo sapiens, iPSC, read-out: EC50, number of erythroid cells), the EC50 stood at 1.6 µM. The efficiency of enucleation in experiment [1] is reported as 5.6%±1.6.
